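Exposure lasted 48 hours, with cells grown in 96-well plates and compounds tested at five concentrations. At the TGI there is no net growth.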
Columns and labels:
Assay in all cases: inhibition of tumour cell growth, NCI panel, 48 h
[1] = system: MCF7 breast
[2] = system: SF-539 CNS
[3] = system: NCI-H522 lung
[4] = system: SK-MEL-28 melanoma
[5] = system: U251 CNS
[6] = system: SN12C renal
[7] = system: MDA-N
[8] = system: MDA-MB-231 breast
[9] = system: ACHN renal
[10] = system: IGROV1 ovarian
[11] = system: HCC-2998 colon
[12] = system: NCI-H23 lung
[13] = system: SF-295 CNS
[14] = system: SK-MEL-2 melanoma
[15] = system: NCI/ADR-RES ovarian
[16] = system: HS 578T breast
[17] = system: CCRF-CEM leukemia
[18] = system: RXF 393 renal
[19] = system: T-47D breast
[20] = system: TK-10 renal
[21] = system: 786-0 renal
[22] = system: LOX IMVI melanoma
[23] = system: UO-31 renal
[24] = system: A498 renal
[25] = system: DU-145 prostate
[26] = system: HT29 colon
[27] = system: HOP-62 NSCLC
[28] = system: HL-60(TB) leukemia
[29] = system: SF-268 CNS
[30] = system: SK-MEL-5 melanoma
[31] = system: SK-OV-3 ovarian
[32] = system: MDA-MB-435
[33] = system: PC-3 prostate
[34] = system: NCI-H460 lung
[35] = system: A549 NSCLC
[36] = system: OVCAR-5 ovarian
[37] = system: UACC-257 melanoma
[38] = system: MOLT-4 leukemia
[39] = system: SNB-75 CNS
[40] = system: MALME-3M melanoma
[41] = system: HCT-116 colon
[42] = system: EKVX NSCLC
[43] = system: OVCAR-4 ovarian
[44] = system: OVCAR-8 ovarian
[45] = system: COLO 205 colon
[46] = system: CAKI-1 renal
[47] = system: SW-620 colon
[48] = system: KM12 colon
[49] = system: BT-549 breast
[50] = system: HCT-15 colon
[51] = system: K-562 leukemia
[52] = system: OVCAR-3 ovarian
[53] = system: UACC-62 melanoma
[54] = system: SNB-19 CNS
[55] = system: M14 melanoma
[56] = system: RPMI-8226 leukemia
[57] = system: HOP-92 NSCLC
[58] = system: NCI-H226 lung
[59] = system: SR leukemia

Molecule COP(=O)(/C=C/c1cc(C(=O)OCc2ccccc2)n(S(=O)(=O)c2ccccc2)c1)OC has a TGI [1] greater than 100 µM, a TGI [2] greater than 100 µM and a TGI [3] greater than 100 µM. The TGI [4] was greater than 100 µM, the TGI [5] was greater than 100 µM and the TGI [6] was greater than 100 µM. It also gave a TGI [7] greater than 100 µM, a TGI [8] greater than 100 µM and a TGI [9] greater than 100 µM. For the same molecule, the TGI [10] was greater than 100 µM, the TGI [11] was greater than 100 µM and the TGI [12] was greater than 100 µM. The TGI [13] was greater than 100 µM, the TGI [14] was greater than 100 µM and the TGI [15] was greater than 100 µM. For the same molecule, the TGI [16] was greater than 100 µM, the TGI [17] was greater than 100 µM and the TGI [18] was greater than 100 µM. It also gave a TGI [19] greater than 100 µM, a TGI [20] greater than 100 µM and a TGI [21] greater than 100 µM. The TGI [22] was greater than 100 µM, the TGI [23] was greater than 100 µM and the TGI [24] was greater than 100 µM. It also gave a TGI [25] greater than 100 µM, a TGI [26] greater than 100 µM and a TGI [27] greater than 100 µM. The TGI [28] was greater than 100 µM, the TGI [29] was greater than 100 µM and the TGI [30] was greater than 100 µM. For the same molecule, the TGI [31] was greater than 100 µM, the TGI [32] was greater than 100 µM and the TGI [33] was greater than 100 µM. For the same molecule, the TGI [34] was greater than 100 µM, the TGI [35] was greater than 100 µM and the TGI [36] was greater than 100 µM. It also gave a TGI [37] greater than 100 µM, a TGI [38] greater than 100 µM and a TGI [39] greater than 100 µM. It also gave a TGI [40] greater than 100 µM, a TGI [41] greater than 100 µM and a TGI [42] greater than 100 µM. The TGI [43] was greater than 100 µM, the TGI [44] was greater than 100 µM and the TGI [45] was greater than 100 µM. It also gave a TGI [46] greater than 100 µM, a TGI [47] greater than 100 µM and a TGI [48] greater than 100 µM. For the same molecule, the TGI [49] was greater than 100 µM, the TGI [50] was greater than 100 µM and the TGI [51] was greater than 100 µM. For the same molecule, the TGI [52] was greater than 100 µM, the TGI [53] was greater than 100 µM and the TGI [54] was greater than 100 µM. For the same molecule, the TGI [55] was greater than 100 µM.
CCOC(=O)C1=C(C)C2C=C(c3cccs3)CC(c3ccc(Cl)cc3)=C2OC1=O (configuration not stated) showed a TGI [1] greater than 100 µM, a TGI [3] greater than 100 µM and a TGI [4] greater than 100 µM. The TGI [5] was greater than 100 µM, the TGI [6] was greater than 100 µM and the TGI [7] was greater than 100 µM. The TGI [56] was 38 µM, the TGI [8] was greater than 100 µM and the TGI [9] was greater than 100 µM. For the same molecule, the TGI [10] was greater than 100 µM, the TGI [11] was 77.3 µM and the TGI [12] was greater than 100 µM. The TGI [13] was greater than 100 µM, the TGI [14] was greater than 100 µM and the TGI [15] was greater than 100 µM. It also gave a TGI [16] greater than 100 µM, a TGI [17] of 60.1 µM and a TGI [18] greater than 100 µM. For the same molecule, the TGI [19] was 66.5 µM, the TGI [20] was greater than 100 µM and the TGI [21] was 67.1 µM. The TGI [22] was 37.9 µM, the TGI [23] was greater than 100 µM and the TGI [24] was greater than 100 µM. It also gave a TGI [25] greater than 100 µM, a TGI [26] greater than 100 µM and a TGI [27] greater than 100 µM. The TGI [28] was 31.6 µM, the TGI [57] was greater than 100 µM and the TGI [29] was greater than 100 µM. For the same molecule, the TGI [30] was greater than 100 µM, the TGI [31] was greater than 100 µM and the TGI [32] was greater than 100 µM. The TGI [33] was greater than 100 µM, the TGI [34] was greater than 100 µM and the TGI [35] was greater than 100 µM. The TGI [36] was greater than 100 µM, the TGI [37] was greater than 100 µM and the TGI [38] was greater than 100 µM. The TGI [39] was greater than 100 µM, the TGI [41] was 69.2 µM and the TGI [58] was greater than 100 µM. The TGI [42] was greater than 100 µM, the TGI [43] was greater than 100 µM and the TGI [44] was greater than 100 µM. For the same molecule, the TGI [45] was greater than 100 µM, the TGI [46] was greater than 100 µM and the TGI [47] was greater than 100 µM. For the same molecule, the TGI [48] was 39.8 µM, the TGI [49] was greater than 100 µM and the TGI [50] was 56.5 µM. It also gave a TGI [51] of 34.4 µM, a TGI [59] of 50 µM and a TGI [52] greater than 100 µM. For the same molecule, the TGI [53] was greater than 100 µM, the TGI [54] was greater than 100 µM and the TGI [55] was greater than 100 µM.
